# According to patent publication US20130281544A1, “HEPATOPROTECTANT ACTIVITY OF GARCINOL” (priority 2010, published 2013):
# Marks after values point to notes of the source that are not given here.
# Tested on: alcohol (Ethyl alcohol) induced hepatotoxic animal models
# Experiment: Serum ALT, AST, ALP and bilirubin in alcohol (ethyl alcohol) induced hepatotoxic animal models
# Type: in vivo, Male Wistar Rats
# Details: EtOH; for ALP percent change / ALT percent change / AST percent change / Bilirubin percent change / ALP / ALT / AST / Bilirubin: serum; for ALP / ALT / AST / Bilirubin: Mean ± SE
# Procedure: Doses of Garcinol (GC) used for the study: 1.25, 2.5, 5, 10 mg/kg p.o.
# Standard drug: Silymarin (50 mg/kg) p.o.
# Male Wistar rats, weighing 180-200 g, were given 0.5-0.6 ml ethanol orally. […] All rats had regular standard rat chow available throughout the 6-week period. Rats were weighted three times per week. [Guangjin Yuan, Zuojiong Gong *, Xiaorong Zhou, Pin Zhang, Xiaomei Sun and Xi Li. Epigallocatechin-3-Gallate Ameliorates Alcohol-Induced Liver Injury in Rats. Int. J. Mol. Sci. 2006, 7, 204-219]. Blood was collected from the retro-orbital plexus of experimental animals and no anti-coagulant was added. Blood was made to stand at room temperature for 1 hour. It was then centrifuged and clear serum was separated. The serum was then stored for analysis. Reference: (Magari et al., 2004).
# (ASPARTATE AMINOTRANSFERASE and ALANINA AMINOTRANSFERASE), Reference: Ritman S, Frankel S, (1957). A colorimetric method for the determination of serum glutamic oxaloacetic and glutamic pyruvic transaminases. American Journal of Clinical Pathology; 28: 56-63.
# 0.2 ml of serum, collected from test and control samples, was mixed with 1.0 ml of buffer solution and incubated for 60 min at 37° C. in a water bath. After the addition of 1.0 ml of chromogen solution, the samples were kept at room temperature for 20 minutes for the reaction to proceed and 10 ml NaOH was added. The optical density was red at 546 nm after 5 min. To the blank, serum was added after the addition of chromogen solution.
# (ALKALINE PHOSPHATASE), Reference: Klaus Walter and Schutt C. (1974). Acid and alkaline phosphatase in serum. In: Methods of Enzymatic Analysis. Eds. Hans Ulrich Bergmeyer, Verlag ChemieWeinheim, Academic press, Inc. New York, 2nd Edition, Vol. 2, pp. 855-64.
# Alkaline phosphatase activity measurement is based on the ability of the enzyme to hydrolyze p-nitrophenol phosphate under alkaline conditions. The cleaved product p-nitrophenol is yellow in alkaline solution and is measured at 400-420 nm (Klaus and Schutt, 1974). 2.0 ml of buffered substrate was taken in the tubes ‘Test’ ‘Control’ and ‘Blank’ followed by addition of serum and distilled water (0.1 ml) in ‘Test’ and ‘Blank’ respectively and incubated in a water bath for 30 minutes at 25° C. After incubation sodium hydroxide was added (0.25 N, 2 ml) to all the tubes, which was followed by serum (0.1 ml) to the tubes marked ‘Control’. The yellow colour formed was measured spectrophotometrically against blank at 410 nm.
# [BILIRUBIN (BRBN)], Reference: Malloy H T and Evelyn K A (1937). The determination of bilirubin with photoelectric colorimeter. Journal of Biological Chemistry 119: 481-490.
# Serum bilirubin was estimated by the method of Malloy and Evelyn (1937). In the two sets of test tubes marked ‘Test’ and ‘Control’, serum (0.2 ml) and distilled water (1.8 ml) were added. To the tubes marked ‘Test’ and ‘Standard’ diazo reagent (0.5 ml) was added. To the test tubes marked ‘Control’ and ‘Blank’ diazo blank (0.5 ml) was added. Finally methanol (2.5 ml) was added into each test tube. The tubes were mixed and allowed to stand for 30 minutes in dark. The tubes were read after 10 minutes at 540 nm.
smiles,measurement,setting,value
C=C(C)[C@@H](CC=C(C)C)C[C@@]12C[C@@H](CC=C(C)C)C(C)(C)[C@@](CC=C(C)C)(C(=O)C(C(=O)c3ccc(O)c(O)c3)=C1O)C2=O [Garcinol],Average Protection,1.25 mg/kg p.o.,17.32%
same,Average Protection,2.50 mg/kg p.o.,29.82%
same,Average Protection,5.00 mg/kg p.o.,39.39%
same,Average Protection,10.00 mg/kg p.o.,40.20%
same,ALP percent change,1.25 mg/kg p.o.,(14.91) %
same,ALT percent change,1.25 mg/kg p.o.,(27.45) %
same,AST percent change,1.25 mg/kg p.o.,(20.20) %
same,Bilirubin percent change,1.25 mg/kg p.o.,(6.73) %
same,ALP,1.25 mg/kg p.o.,88.68 ± 8.58 μmol min/lt
same,ALT,1.25 mg/kg p.o.,1320.40 ± 52.20* μmol min/lt
same,AST,1.25 mg/kg p.o.,858.80 ± 32.64 μmol min/lt
same,Bilirubin,1.25 mg/kg p.o.,1.94 ± 0.02 mg %
same,ALP percent change,2.50 mg/kg p.o.,(26.96) %
same,ALT percent change,2.50 mg/kg p.o.,(40.63) %
same,AST percent change,2.50 mg/kg p.o.,(32.47) %
same,Bilirubin percent change,2.50 mg/kg p.o.,(19.23) %
same,ALP,2.50 mg/kg p.o.,76.12 ± 4.88* μmol min/lt
same,ALT,2.50 mg/kg p.o.,1080.50 ± 48.56** μmol min/lt
same,AST,2.50 mg/kg p.o.,726.78 ± 46.50* μmol min/lt
same,Bilirubin,2.50 mg/kg p.o.,1.68 ± 0.04* mg %
same,ALP percent change,5.00 mg/kg p.o.,(34.44) %
same,ALT percent change,5.00 mg/kg p.o.,(51.83) %
same,AST percent change,5.00 mg/kg p.o.,(39.58) %
same,Bilirubin percent change,5.00 mg/kg p.o.,(31.73) %
same,ALP,5.00 mg/kg p.o.,68.32 ± 5.60** μmol min/lt
same,ALT,5.00 mg/kg p.o.,876.58 ± 76.80** μmol min/lt
same,AST,5.00 mg/kg p.o.,650.26 ± 56.20** μmol min/lt
same,Bilirubin,5.00 mg/kg p.o.,1.42 ± 0.06** mg %
same,ALP percent change,10.00 mg/kg p.o.,(33.79) %
same,ALT percent change,10.00 mg/kg p.o.,(52.15) %
same,AST percent change,10.00 mg/kg p.o.,(41.23) %
same,Bilirubin percent change,10.00 mg/kg p.o.,(33.65) %
same,ALP,10.00 mg/kg p.o.,69.00 ± 4.82** μmol min/lt
same,ALT,10.00 mg/kg p.o.,870.80 ± 48.40** μmol min/lt
same,AST,10.00 mg/kg p.o.,632.48 ± 44.56** μmol min/lt
same,Bilirubin,10.00 mg/kg p.o.,1.39 ± 0.04** mg %
